Data on 39 molecules can be found in PubChem BioAssay (NCI).

This assay relates to MDA-MB-468 breast. Put plainly: NCI-60 cell line screen, 48 h.

Values joined by “and” are separate entries in the source; they are usually repeats but may differ in a detail not shown here. Identical values can stand only once.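 Assay format: 96-well plates, 48-hour exposure. At the GI50, growth is halved. TGI is the concentration that stops growth completely.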

Consider `CCCCCCNC(=O)Nc1ccc2cc3ccc(NC(=O)NCCCCCC)cc3nc2c1`, for which the GI50 is 1620 nM and the TGI was found to be 3730 nM.
In the case of `O=C(C[Si](CC(=O)c1cccc(C(F)(F)F)c1)CC(=O)c1cccc(C(F)(F)F)c1)c1cccc(C(F)(F)F)c1`, the GI50 is 2240 nM and the TGI came out at 6710 nM.
In the case of `NC(=O)c1cccc(N2Cc3ccccc3OC3=C2C(=O)c2c(O)ccc(O)c2C3=O)c1`, the GI50 is 195 nM and the TGI worked out at 425 nM.
`CCCCCCCCCCCC[n+]1c(C)cc(N)c2ccccc21`: the GI50 was 206 nM and the TGI was determined as 760 nM.
In the case of `O=C1OCC2=C1C(c1cccc(Cl)c1)c1cc3c(cc1N2CCO)OCO3` (stereo unspecified), the GI50 was 246 nM.
Consider `Cc1c(C(N)=O)sc2c1c(=O)n(Cc1ccccc1)c1nnc(SCC(=O)Nc3ccc(Cl)cc3)n21`, for which the GI50 was 2640 nM and the TGI came to 6880 nM.
For `O=C(N/N=C\c1c(O)ccc2ccccc12)C1CC1`, in that order: 3160 nM and 8680 nM.
As for `COc1ccc2nc3cc(Cl)ccc3c(NCCCCCN3CCCCC3)c2c1`, the GI50 is 1210 nM and the TGI was 2580 nM.
Turning to `COC(=O)[C@@H](C[C@H](Cc1ccccc1)NC(=O)c1csc([C@@H](C[C@H](C(C)C)N(C)C(=O)[C@@H](NC(=O)[C@H]2CCCCN2C)C(C)C)OC(C)=O)n1)NC(=O)OCc1ccccc1`, the GI50 was under 0.833 nM and the TGI is under 0.833 nM.
On to `Clc1ccc(/C=C2\CCCC3C2=Nc2ccccc2NC3c2ccc(Cl)cc2)cc1` (stereo unspecified), for which the GI50 was 1890 nM and the TGI was found to be 4600 nM.
In the same order, the values of `Cn1cc(C2=C(c3cn(CCCO)c4ccccc34)C(=O)NC2=O)c2ccccc21` are 2250 nM and 18400 nM.
Regarding `O=C(Nc1cccc(-c2cccc(F)c2)c1)C1CCN(Cc2cccc3cccnc23)CC1`, the GI50 was 1760 nM and the TGI worked out at 3460 nM.
On to `Cc1ccc(-c2cc(C(=O)N3N=C(c4ccc(N)cc4)CC3c3ccc(Cl)cc3)c3ccccc3n2)cc1` (stereo unspecified), for which the GI50 was 4910 nM and the TGI is over 100000 nM.
In the same order, the values of `O=C1c2ccccc2C(=O)c2c(N=Nc3[nH]c(=S)[nH]c3O)cccc21` are 440 nM and 9340 nM.
`CC(Nc1c(C#N)cnc2ccc(-c3cnc(N)nc3)cc12)c1ccccc1` (stereo unspecified): the GI50 was 396 nM and the TGI worked out at 3340 nM.
Consider `Cn1cc(C2=C(c3cn(CCSC(=N)N)c4ccccc34)C(=O)NC2=O)c2ccccc21`, for which the GI50 was 3190 nM and the TGI was determined as 7120 nM.
Consider `CC(=O)OC[C@]1(C)C=C2C(=O)[C@](C)(O)C3(CC3)C(C)=C2[C@H]1OC(=O)N(C)CCN(C)C(=O)OC(C)(C)C`, for which the GI50 is 519 nM and the TGI came to 1200 nM.
As for `Cc1cc(Nc2cccc(F)c2)nc(NCc2ccccc2)n1`, the GI50 is 2170 nM and the TGI was determined as 7750 nM.
As to `CC(=O)c1cc2c(c(O)c1C)C(=O)C(=O)c1c(O)cccc1-2`, the GI50 is 198 nM and the TGI is 495 nM.
`COc1ccc(S(=O)(=O)Nc2cc(/C=C\c3cc(OC)c(OC)c(OC)c3)cc(OC)c2OC)cc1`: the GI50 is 42 nM and the TGI is over 100000 nM.
Regarding `Cc1nc2cc(-n3c(-c4ccc(F)cc4)nc4ccccc4c3=O)ccc2n1Cc1ccccc1`, the GI50 was 2000 nM and the TGI worked out at 4950 nM.
Consider `C[C@@H](O)[C@H]1C(=O)N2C(C(=O)O)=C(SCCN=CN)C[C@H]12`, for which the GI50 is 1100 nM and the TGI amounted to 2730 nM.
For `COC(=O)C(N)CSC(c1ccccc1)(c1ccccc1)c1ccccc1` (stereo unspecified), in that order: 336 nM and 2740 nM.
`Nc1nc(N)c2cc(CNc3ccc(C(=O)NC(CC(=O)O)C(=O)O)cc3)ccc2n1` (stereo unspecified): the GI50 is 941 nM.
Take `COc1ccc(/C=N/C2=C(C#N)C(c3ccccc3)c3c(ccc4ccccc34)O2)cc1` (stereo unspecified): the GI50 is 1080 nM and the TGI turned out to be 20500 nM.
`CN(C)c1ccc2nc3ccc(N)cc3[n+](-c3ccccc3)c2c1`: the GI50 was 179 nM and 1740 nM; the TGI is 1540 nM and 7280 nM.
As to `C1CN1c1nc(N2CC2)nc(N2CC2)n1`, the GI50 is 4830 nM and the TGI was 19200 nM.
Take `CN1CCN(c2ccc3nc(-c4c5cccccc-5[nH]c4=O)[nH]c3c2)CC1`: the GI50 was 15400 nM and the TGI was determined as 34200 nM.
In the same order, the values of `COc1cccc2c1-c1ccccc1C2=O` are 346 nM and 21300 nM.
As to `O[N+]1=CC=CCC1=S.On1ccccc1=S.[Zn]`, the GI50 is 584 nM and the TGI came out at 1600 nM.
For the molecule `CC(C)[C@]12O[C@H]1[C@@H]1O[C@]13[C@]1(O[C@H]1C[C@H]1C4=C(CC[C@@]13C)C(=O)OC4)[C@@H]2OC(=O)CN(C)C`, the GI50 was 18.3 nM and the TGI is 52.4 nM.
Take `CO[C@H](C(=O)[C@@H](O)[C@@H](C)O)[C@@H]1Cc2cc3cc(O[C@H]4C[C@@H](O[C@H]5C[C@@H](O)[C@H](O)C(C)O5)[C@H](O)C(C)(O)O4)cc(O)c3c(O)c2C(=O)[C@H]1O[C@H]1C[C@@H](O[C@H]2C[C@@H](O[C@H]3C[C@@H](OC)[C@H](O)C(C)O3)[C@@H](O)C(C)O2)[C@H](O)C(C)O1` (stereo partly specified): the GI50 is 2930 nM and the TGI was over 16800 nM.
Turning to `Cc1c2cnccc2c(C)c2c1c1cc(CO)ccc1n2C`, the GI50 is 151 nM and the TGI came out at 420 nM.
In the case of `CCN(CC)c1ccc(/C=C2\SC(=O)C(Nc3nnc(-c4cccnc4SCc4ccccc4)o3)C2=O)cc1` (stereo unspecified), the GI50 was 3230 nM and the TGI came to 11800 nM.
Turning to `COc1cccc(/C=N/Nc2ncnc3c2cnn3-c2cccc(OC)c2)c1`, the GI50 was over 25000 nM and the TGI is over 25000 nM.
With `O=C(O)CCCn1c(SCc2c(Cl)cccc2Cl)nc2ccsc2c1=O`, the GI50 was 240 nM and the TGI is over 100000 nM.
With `COc1ccc(/C=C/C(=O)c2cccc(B(O)O)c2)cc1O`, the GI50 is 2860 nM and the TGI was 21000 nM.
On to `FC(F)(F)c1cccc(Nc2nc3ccccc3nc2Nc2cccc(C(F)(F)F)c2)c1`, for which the GI50 is 1530 nM and the TGI is 3560 nM.
In the case of `CN([O-])c1nc(N(C)[O-])nc(N2CCOCC2)n1.CN([O-])c1nc(N(C)[OH2+])nc(N2CCOCC2)n1.[Fe+3]`, the GI50 is 45400 nM and the TGI was over 100000 nM.
